Here are results for 33 molecules from patent publication US9434743B2, “Indazole derivatives” (TAKEDA PHARMACEUTICAL COMPANY LIMITED, priority 2012, dated 2016).

Assay [1] concerns angiogenesis. The following applies: cited from earlier work.
For assay [2] the following is noted: cited from earlier work.
Assay [3] addresses T1, human MetAP2 enzyme (Homo sapiens, UniProt P50579). The assay is described as follows: MetAP2 enzyme assay, enzyme complexed with manganese ions. The following applies: MetAP2 Mn pIC50, MetAP2 enzyme complexed with manganese ions; Met-AMC substrate at Km.
Assay [4] concerns the target T1, human MetAP2 enzyme. The assay is described as follows: MetAP2 enzyme assay, enzyme complexed with cobalt ions. The following applies: MetAP2 Co pIC50, MetAP2 enzyme complexed with cobalt ions; Met-AMC substrate at Km.
Protocol: DNA encoding the full-length sequence of human MetAP2 enzyme is amplified by PCR and cloned into a pFastBac expression vector (Invitrogen). Recombinant baculovirus incorporating the MetAP2 construct is generated by transposition using the Bac-to-Bac system (Invitrogen). The expression of recombinant protein is carried out by infection of Spodoptera frugiperda Sf9 cells (Invitrogen) in 5 L Wave Bioreactors (Wave Biotech). Recombinant protein is isolated from cellular extracts by binding to an SP Hitrap Fast Flow or SP Sepharose (Sigma) column, and the protein is eluted using a NaCl gradient. Partially purified extracts of MetAP2 are further purified by an AKTA FPLC over a Superdex-200 column (GE). The purity of MetAP2 protein is determined on denaturing SDS-PAGE gel.
The results for each well are expressed as percent inhibition and calculated using the equation:

T1 sequence (P50579 whole entry): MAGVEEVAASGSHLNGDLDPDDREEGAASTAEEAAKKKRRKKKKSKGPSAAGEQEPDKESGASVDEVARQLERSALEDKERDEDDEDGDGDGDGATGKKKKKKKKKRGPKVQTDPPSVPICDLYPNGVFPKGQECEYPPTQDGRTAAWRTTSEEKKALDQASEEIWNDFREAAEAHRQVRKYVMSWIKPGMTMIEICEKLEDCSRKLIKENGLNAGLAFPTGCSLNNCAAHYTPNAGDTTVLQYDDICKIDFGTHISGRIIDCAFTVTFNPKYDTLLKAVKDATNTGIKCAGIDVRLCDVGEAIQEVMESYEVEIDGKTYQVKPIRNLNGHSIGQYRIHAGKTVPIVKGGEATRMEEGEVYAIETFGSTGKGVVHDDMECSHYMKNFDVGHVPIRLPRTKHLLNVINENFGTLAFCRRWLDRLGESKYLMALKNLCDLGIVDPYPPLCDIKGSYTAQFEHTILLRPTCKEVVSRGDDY

With `CO[C@@H]1[C@H](OC(=O)/C=C/C=C/C=C/C=C/C(=O)O)CC[C@]2(CO2)[C@H]1[C@@]1(C)O[C@@H]1CC=C(C)C` [fumagillin], in assay [1], the inhibition of angiogenesis result is given as “inhibit angiogenesis”. Further, the “effect on diet-induced obesity” value in assay [2] (diet-induced obesity in mice) is reported as “impair diet-induced obesity”.

Take `CO[C@@H]1[C@H](OC(=O)/C=C/c2ccc(OCCN(C)C)cc2)CC[C@]2(CO2)[C@H]1[C@@]1(C)O[C@@H]1CC=C(C)C` [CKD-732]: in assay [2] (genetically and diet-induced obese mice), the “food intake, body weight, fat mass, size of adipocytes” value is “decrease food intake, body weight, fat mass, and the size of adipocytes”.

As usually defined, the IC50 is the point on the concentration scale where inhibition reaches its midpoint. Take `Cc1nn(CCC(N)=O)c(C)c1-c1cc(C(F)(F)F)cc2[nH]ncc12` [Example 172, 3-(3,5-dimethyl-4-(6-(trifluoromethyl)-1H-indazol-4-yl)-1H-pyrazol-1-yl)propanamide]: the IC50 in assay [3] was 7.94 nM; in assay [4], 50.1 nM.

As to `Cc1ccc(C(=O)N2CCC(O)CC2)cc1-c1cc(C(F)(F)F)cc2[nH]ncc12` [Example 372, (4-hydroxypiperidin-1-yl)(4-methyl-3-(6-(trifluoromethyl)-1H-indazol-4-yl)phenyl)methanone], the figures for the half-maximal inhibitory concentration (IC50) in assay [3] and in assay [4] were 31.6 nM and 100 nM, respectively.

With `COc1nccc(C)c1-c1cc(C(F)(F)F)cc2[nH]ncc12` [Example 123, 4-(2-methoxy-4-methylpyridin-3-yl)-6-(trifluoromethyl)-1H-indazole], the concentration for half-maximal inhibition (IC50) was 31.6 nM in assay [3] and 63.1 nM in assay [4].

As to `Fc1c(-c2cc(C(F)(F)F)cc3[nH]ncc23)ccnc1N1CCOCC1` [Example 65, 4-(3-fluoro-4-(6-(trifluoromethyl)-1H-indazol-4-yl)pyridin-2-yl)morpholine], the IC50 is 12.6 nM in assay [3] and 15.8 nM in assay [4].

With `COc1ncc(-c2cc(C(F)(F)F)cc3[nH]ncc23)cc1C(N)=O` [Example 232, 2-methoxy-5-(6-(trifluoromethyl)-1H-indazol-4-yl)nicotinamide], the half-inhibitory concentration (IC50) in assay [3] was 6.31 nM; in assay [4], 63.1 nM.

As for `N#Cc1cccc(-c2cc(C(F)(F)F)cc3[nH]ncc23)c1` [Example 33, 3-(6-(trifluoromethyl)-1H-indazol-4-yl)benzonitrile], the IC50 is 10 nM in assay [3] and 100 nM in assay [4].

For the molecule `NC(=O)c1cccc(-c2cc(C(F)(F)F)cc3[nH]ncc23)c1` [Example 18, 3-(6-(trifluoromethyl)-1H-indazol-4-yl)benzamide], the results for the IC50 in assay [3] and in assay [4] were 3.16 nM and 25.1 nM, respectively.

On to `CN1CCN(C(=O)c2ccc(-c3cc(C(F)(F)F)cc4[nH]ncc34)cn2)CC1` [Example 271, (4-methylpiperazin-1-yl)(5-(6-(trifluoromethyl)-1H-indazol-4-yl)pyridin-2-yl)methanone], for which the 50% inhibitory concentration (IC50) in assay [3] is 12.6 nM; in assay [4], 316 nM.

Turning to `Cc1cc(=O)n(CC#N)cc1-c1cc(C(F)(F)F)cc2[nH]ncc12` [Example 408, 2-(4-methyl-2-oxo-5-(6-(trifluoromethyl)-1H-indazol-4-yl)pyridin-1(2H)-yl)acetonitrile], the results for the half-maximal inhibitory concentration (IC50) in assay [3] and in assay [4] were 3.98 nM and 79.4 nM, respectively.

With `Cc1nn(CC(=O)N(C)C)c(C)c1-c1cc(C(F)(F)F)cc2[nH]ncc12` [Example 363, 2-(3,5-dimethyl-4-(6-(trifluoromethyl)-1H-indazol-4-yl)-1H-pyrazol-1-yl)-N,N-dimethylacetamide], the figures for the 50% inhibitory concentration (IC50) in assay [3] and in assay [4] were 15.8 nM and 79.4 nM, respectively.

On to `Cc1cccnc1-c1cc(C(F)(F)F)cc2[nH]ncc12` [Example 135, 4-(3-methylpyridin-2-yl)-6-(trifluoromethyl)-1H-indazole], for which the results for the concentration for half-maximal inhibition (IC50) in assay [3] and in assay [4] were 10 nM and 158 nM, respectively.

Take `FC(F)(F)c1cc(-c2cnc(N3CCCC3)nc2)c2cn[nH]c2c1` [Example 116, 4-(2-(pyrrolidin-1-yl)pyrimidin-5-yl)-6-(trifluoromethyl)-1H-indazole]: the concentration for half-maximal inhibition (IC50) is 7.94 nM in assay [3] and 39.8 nM in assay [4].

Turning to `FC(F)(F)c1cc(-c2cccc(-n3cccn3)c2)c2cn[nH]c2c1` [Example 69, 4-(3-(1H-pyrazol-1-yl)phenyl)-6-(trifluoromethyl)-1H-indazole], the figures for the IC50 in assay [3] and in assay [4] were 6.31 nM and 158 nM, respectively.

Consider `Cc1cc(Cn2nc(CO)c(-c3cc(C(F)(F)F)cc4[nH]ncc34)c2C)on1` (single isomer, unassigned) [Example 411, (5-methyl-1-((3-methylisoxazol-5-yl)methyl)-4-(6-(trifluoromethyl)-1H-indazol-4-yl)-1H-pyrazol-3-yl)methanol], for which the values for the IC50 in assay [3] and in assay [4] were 7.94 nM and 6.31 nM, respectively.

With `FC(F)(F)c1cc(-c2ccc3[nH]ncc3c2)c2cn[nH]c2c1` [Example 236, 6-(trifluoromethyl)-1H,1′H-4,5′-biindazole], the results for the IC50 in assay [3] and in assay [4] were 6.31 nM and 63.1 nM, respectively.

On to `Cc1nn(CC#N)c(C)c1-c1cc(C(F)(F)F)cc2[nH]ncc12` [Example 170, 2-(3,5-dimethyl-4-(6-(trifluoromethyl)-1H-indazol-4-yl)-1H-pyrazol-1-yl)acetonitrile], for which the half-maximal inhibitory concentration (IC50) in assay [3] is 20 nM; in assay [4] it was 100 nM.

For `Nc1ncc(-c2cc(C(F)(F)F)cc3[nH]ncc23)cc1C(=O)NCCO` [Example 230, 2-amino-N-(2-hydroxyethyl)-5-(6-(trifluoromethyl)-1H-indazol-4-yl)nicotinamide], the IC50 in assay [3] is 7.94 nM; in assay [4], 158 nM.

As to `O=C(NC1CC1)c1c[nH]c(=O)c(-c2cc(C(F)(F)F)cc3[nH]ncc23)c1` [Example 332, N-cyclopropyl-6-oxo-5-(6-(trifluoromethyl)-1H-indazol-4-yl)-1,6-dihydropyridine-3-carboxamide], the values for the half-inhibitory concentration (IC50) in assay [3] and in assay [4] were 12.6 nM and 316 nM, respectively.

`Cc1ccc(N)c(-c2cc(C(F)(F)F)cc3[nH]ncc23)n1` [Example 188, 6-methyl-2-(6-(trifluoromethyl)-1H-indazol-4-yl)pyridin-3-amine]: the concentration for half-maximal inhibition (IC50) is 79.4 nM in assay [3] and 1580 nM in assay [4].

With `O=C(NCCO)c1ccc(-c2cc(C(F)(F)F)cc3[nH]ncc23)cc1F` [Example 109, 2-fluoro-N-(2-hydroxyethyl)-4-(6-(trifluoromethyl)-1H-indazol-4-yl)benzamide], the IC50 in assay [3] is 3.16 nM; in assay [4], 50.1 nM.

Regarding `O=C(NCCO)c1cc(-c2cc(C(F)(F)F)cc3[nH]ncc23)c[nH]c1=O` [Example 228, N-(2-hydroxyethyl)-2-oxo-5-(6-(trifluoromethyl)-1H-indazol-4-yl)-1,2-dihydropyridine-3-carboxamide], the figures for the IC50 in assay [3] and in assay [4] were 5.01 nM and 158 nM, respectively.

Turning to `NS(=O)(=O)c1ccc(-c2cc(C(F)(F)F)cc3[nH]ncc23)cc1` [Example 25, 4-(6-(trifluoromethyl)-1H-indazol-4-yl)benzenesulfonamide], the figures for the concentration for half-maximal inhibition (IC50) in assay [3] and in assay [4] were 7.94 nM and 50.1 nM, respectively.

Take `Cc1ncc(-c2cc(C(F)(F)F)cc3[nH]ncc23)c2cc[nH]c12` [Example 292, 4-(7-methyl-1H-pyrrolo[2,3-c]pyridin-4-yl)-6-(trifluoromethyl)-1H-indazole]: the IC50 in assay [3] was 6.31 nM; in assay [4], 39.8 nM.

Turning to `FC(F)(F)c1cc(-c2ccc(-c3ccn[nH]3)cc2)c2cn[nH]c2c1` [Example 62, 4-(4-(1H-pyrazol-5-yl)phenyl)-6-(trifluoromethyl)-1H-indazole], the half-inhibitory concentration (IC50) in assay [3] was 12.6 nM; in assay [4], 100 nM.

Turning to `O=C(NCCO)c1cc(-c2cc(C(F)(F)F)cc3[nH]ncc23)ccn1` [Example 308, N-(2-hydroxyethyl)-4-(6-(trifluoromethyl)-1H-indazol-4-yl)picolinamide], the IC50 in assay [3] is 6.31 nM; in assay [4] it was 79.4 nM.

Consider `Cc1cc(-c2cc(C(F)(F)F)cc3[nH]ncc23)n(C)n1` [Example 126, 4-(1,3-dimethyl-1H-pyrazol-5-yl)-6-(trifluoromethyl)-1H-indazole], for which the IC50 in assay [3] is 7.94 nM; in assay [4], 50.1 nM.

Take `CNC(=O)Cn1nc(C)c(-c2cc(C(F)(F)F)cc3[nH]ncc23)c1C` [Example 367, 2-(3,5-dimethyl-4-(6-(trifluoromethyl)-1H-indazol-4-yl)-1H-pyrazol-1-yl)-N-methylacetamide]: the figures for the half-inhibitory concentration (IC50) in assay [3] and in assay [4] were 15.8 nM and 50.1 nM, respectively.

Turning to `COCC(=O)Nc1ccc(-c2cc(C(F)(F)F)cc3[nH]ncc23)c(C)n1` [Example 258, 2-methoxy-N-(6-methyl-5-(6-(trifluoromethyl)-1H-indazol-4-yl)pyridin-2-yl)acetamide], the IC50 in assay [3] was 7.94 nM; in assay [4], 25.1 nM.

As for `Cc1n[nH]c(C)c1-c1cc(C(F)(F)F)cc2[nH]ncc12` [Example 83, 4-(3,5-dimethyl-1H-pyrazol-4-yl)-6-(trifluoromethyl)-1H-indazole], the half-inhibitory concentration (IC50) is 20 nM in assay [3] and 39.8 nM in assay [4].

With `OCCNc1ncc(-c2cc(C(F)(F)F)cc3[nH]ncc23)cn1` [Example 209, 2-(5-(6-(trifluoromethyl)-1H-indazol-4-yl)pyrimidin-2-ylamino)ethanol], the IC50 was 6.31 nM in assay [3] and 79.4 nM in assay [4].

With `O=c1[nH]c2ccc(-c3cc(C(F)(F)F)cc4[nH]ncc34)cc2[nH]1` [Example 237, 5-(6-(trifluoromethyl)-1H-indazol-4-yl)-1H-benzo[d]imidazol-2(3H)-one], the IC50 in assay [3] was 2.51 nM; in assay [4] it was 12.6 nM.
